# Where a SMILES comes first, the peptide text is derived from it.
# Legend:
# [1] = tested on: Jurkat E6.1 cells; settings: 150 µM
# Procedure: (§1) Before conducting cellular assays, the effects of the peptides on cell viability in Jurkat E6.1 and T cell stimulator (TCS) cell lines, as well as their stability in cell culture supernatant, were evaluated. Jurkat E6.1 cells are human T cell acute lymphoblastic leukemia cells, while TCS is a modified murine thymoma cell line (BW5147). The cellular platforms described below are based on these cells. […] The stability of the peptides in supernatant collected from cells after 24 h of incubation was also assessed.
# (§2) Comparison of the binding affinity obtained from SpS and MM-GBSA
# (§3) Table S3. Experimental and theoretical binding affinities for the BTLA/HVEM and HVEM/peptide complexes. Experimental Kd values obtained from SpS were used to calculate the corresponding ΔG, while theoretical ΔG values were obtained from MM-GBSA analysis. protein/protein ΔG ΔG obtained from or K [µmol] SD calculated SD MM-GBSA SD
# (§4) The cytotoxicity of the peptides against two cell lines, Jurkat E6.1 and TCS, was examined. To estimate the number of viable cells, the CellTiter-Glo® luminescence-based assay
# [2] = tested on: T cell stimulator (TCS) cell line (BW5147); settings: 150 µM
# Procedure: as §1, §2, §3, §4
# [3] = biological target: T1, BTLA/HVEM complex (Homo sapiens, UniProt Q92956); test: ELISA inhibition of BTLA/HVEM complex formation; assay type: biochemical; settings: immobilized HVEM-His, BTLA-Fc 5 μg/mL, PBS-T, 37 °C, mean of three independent experiments; for inhibition at 16.67 µM: peptide 16.67 μM; for inhibition at 50 µM: peptide 50 μM; for inhibition at 150 µM: peptide 150 μM
# T1 construct: purchased ACROBiosystems HVM-H52E9 (HVEM-His); BTA-H5255 (BTLA-Fc)
# T1 sequence (Q92956 39-202 limits assumed): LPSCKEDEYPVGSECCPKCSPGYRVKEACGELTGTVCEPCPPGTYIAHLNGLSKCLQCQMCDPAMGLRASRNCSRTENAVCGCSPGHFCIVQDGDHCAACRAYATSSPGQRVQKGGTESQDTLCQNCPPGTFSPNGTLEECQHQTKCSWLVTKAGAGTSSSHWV
# Procedure: In the subsequent stage of the study, the potential of the obtained compounds to inhibit the interaction between BTLA and HVEM proteins was evaluated using ELISA, following the methodology described in our previous studies. , HVEM was immobilized on the plate and incubated with peptides at three different concentrations, followed by the addition of Fc-tagged BTLA. Detection was carried out using horseradish peroxidase (HRP) conjugated with anti-human IgG and 3,3′,5,5′-tetramethylbenzidine (TMB) as a substrate. Signal intensity was directly proportional to the amount of BTLA bound to HVEM and inversely proportional to the inhibitory activity of the tested peptides. As a control, BTLA and HVEM were incubated in the absence of peptides.
# Recombinant human HVEM protein with a His tag was purchased from ACROBiosystems, Newark, DE, USA (no. HVM-H52E9). Recombinant human protein BTLA-Fc and LIGHT-Fc were also purchased from ACROBiosystems, Newark, DE, USA (no. BTA-H5255 and no. LIT-H5269).
# ELISA was performed using transparent 96-well NUNC Maxisorp plates (Thermo Fisher Scientific, Waltham, MA, USA). In the first step, HVEM-His, dissolved in PBS at a concentration of 5 μg/mL (100 μL/well), was immobilized on the plate by overnight incubation at 4 °C. Wells were then blocked with 5% bovine serum albumin (BSA) in PBS containing 0.05% Tween 20 (PBS-T) (200 μL/well). Next, peptides dissolved in PBS-T at concentrations of 150, 50, and 16.67 μM were added to the wells (100 μL/well). Following this, BTLA-Fc in PBS-T at a concentration of 5 μg/mL (100 μL/well) was applied. In the next step, goat anti-human IgG antibody conjugated with the HRP (Bio-Rad Laboratories, Hercules, CA, USA) in PBS-T at a ratio of 1:30,000 (v/v) was added (100 μL/well). Colorimetric detection was performed by adding 100 μL of TMB substrate (Thermo Fisher Scientific, Waltham, MA, USA) to each well and incubating the plate in the dark. At each stage, plates were incubated at 37 °C with continuous shaking for 1 h (except TMB, which was incubated for 15 min). After each incubation, wells were washed five times with PBS-T. Absorbance was measured using an Infinite M200 Pro Reader (Tecan Group Ltd., Männedorf, Switzerland) at wavelengths of 650 nm (measurement wavelength) and 492 nm (reference wavelength). Inhibition assays for the HVEM/LIGHT complex were conducted using the same approach, except that LIGHT was used instead of BTLA. The BTLA/HVEM and HVEM/LIGHT complexes without peptides served as controls. Inhibition percentages were calculated based on the assumption that PBS-T has no effect on the formation of BTLA/HVEM or HVEM/LIGHT complexes. Each ELISA was conducted in at least three independent replicates. The data were analyzed using GraphPad Prism 8 software (San Diego, CA, USA).
# [4] = tested on: BTLA/HVEM interaction; test: Cellular reporter assay, HVEM reporter cells (JE6.1-NF-κB::eGFP) stimulated with TCS-BTLA; assay type: cell-based, human; settings: 30 min preincubation, 24 h coculture, NF-κB::eGFP by flow cytometry, mean of four independent experiments in duplicate; for Inhibition - Cellular assay 16.67 µM: peptide 16.67 μM; for Inhibition - Cellular assay 50 µM: peptide 50 μM; for Inhibition - Cellular assay 150 µM: peptide 150 μM
# Procedure: In the next step of the study, the inhibitory properties of the designed peptides were evaluated using previously described cell-based assays. The experiment utilized reporter cells expressing HVEM (JE6.1-NF-κB::eGFP) and T cell stimulator cells expressing BTLA (TCS-BTLA). Activation of the reporter cells by TCS followed a two-signal model. The first is generated through the interaction between the T cell receptor–cluster of differentiation 3 (TCR–CD3) complex on the surface of the reporter cells and a membrane-bound antihuman CD3 single-chain antibody fragment (mAb aCD3) expressed on the TCS cells. The second signal is provided by the binding of HVEM and BTLA, which in this assay results in a strong costimulatory signal via HVEM. Activation of the reporter cells leads to the expression of nuclear factor kappa light chain enhancer of activated B cells (NF-κB), which correlates with the level of enhanced green fluorescent protein (eGFP), measured by flow cytometry. In the absence of peptides, NF-κB expression is normalized to 100%. Disruption of the BTLA/HVEM interaction by peptides results in a concentration-dependent decrease in NF-κB levels. In this study, HVEM-expressing reporter cells were stimulated with BTLA-expressing TCS cells in the presence or absence of tested peptides at three different concentrations.
# Cellular studies were performed in the same procedure as we described previously for gD- and BTLA-derived peptides. , The peptides were dissolved in the medium, and their final concentrations in wells were 150, 50, and 16,7 μM. Briefly, reporter cells expressing HVEM (JE6.1-NF-κB::eGFP) (5 × 10^4 cells/well) were preincubated with peptides for 30 min in a 96-well flat-bottom plate. Subsequently, the second cell line expressing BTLA (TCS BTLA) or LIGHT (TCS LIGHT) (2 × 10^4 cells/well) was added and cocultured for 24 h at 37 °C in an atmosphere of 5% CO2. Next, an APC-conjugated mCD45.2 antibody to exclude TCS from the reporter cells was added. The expression of the reporter gene (eGFP) was measured via flow cytometry using a CytoFLEX flow cytometer (Beckman Coulter Inc., Brea, CA, USA), and the results were analyzed using FlowJo v10.10 (FlowJo LLC, Ashland, OR, USA). The data were analyzed using GraphPad Prism 8 software (San Diego, CA, USA).
Compound,"Cell viability, Jurkat E6.1 [1] [%]","Cell viability, TCS [2] [%]",inhibition at 16.67 µM [3] [%],inhibition at 50 µM [3] [%],Inhibition - Cellular assay 16.67 µM [4] [%],Inhibition - Cellular assay 50 µM [4] [%],Inhibition - Cellular assay 150 µM [4] [%],inhibition at 150 µM [3] [%]
"CC[C@@H]1NC(=O)[C@H](CC(C)C)NC(=O)[C@H](Cc2ccccc2)NC(=O)[C@H](C(C)C)NC(=O)[C@@H](NC(=O)[C@H](Cc2ccccc2)NC(C)=O)CSSC[C@@H](C(=O)N[C@@H](CC(C)C)C(N)=O)NC(=O)[C@H](CC(C)C)NC(=O)[C@H](CCC(N)=O)NC(=O)[C@H](CCCCN)NC(=O)[C@H](CC(C)C)NC(=O)[C@H](CO)NC(=O)[C@H]([C@@H](C)O)NC(=O)[C@H](CCC(=O)O)NC(=O)[C@@H]2CCCN2C(=O)[C@H](CO)NC(=O)[C@H](CC)NC(=O)[C@H](CC(=O)O)NC(=O)CNC(=O)[C@H](CO)NC(=O)[C@H](CCCNC(=N)N)NC(=O)[C@H](CC(=O)O)NC(=O)[C@H](CCCCN)NC1=O [B2, CD160(56–79)^(V57C,C61X,C68X,R78C)] (HELM PEPTIDE1{[ac].F.C.V.F.L.[Abu].K.D.R.S.G.D.[Abu].S.P.E.T.S.L.K.Q.L.C.L.[am]}$PEPTIDE1,PEPTIDE1,3:R3-24:R3$$$V2.0)",47,9,-3.89,-2.56,–,–,–,–
"CC(=O)N[C@@H](Cc1ccccc1)C(=O)N[C@H](C(=O)N[C@H](C(=O)N[C@@H](Cc1ccccc1)C(=O)N[C@@H](CC(C)C)C(=O)N[C@H]1CSSC[C@@H](C(=O)N[C@@H](CO)C(=O)N2CCC[C@H]2C(=O)N[C@@H](CCC(=O)O)C(=O)N[C@H](C(=O)N[C@@H](CO)C(=O)N[C@@H](CC(C)C)C(=O)N[C@@H](CCCCN)C(=O)N[C@@H](CCC(N)=O)C(=O)N[C@@H](CC(C)C)C(=O)N[C@@H](CCCNC(=N)N)C(=O)N[C@@H](CC(C)C)C(N)=O)[C@@H](C)O)NC(=O)[C@H](CC(=O)O)NC(=O)CNC(=O)[C@H](CO)NC(=O)[C@H](CCCNC(=N)N)NC(=O)[C@H](CC(=O)O)NC(=O)[C@H](CCCCN)NC1=O)C(C)C)C(C)C [B5, CD160(56–79)] (HELM PEPTIDE1{[ac].F.V.V.F.L.C.K.D.R.S.G.D.C.S.P.E.T.S.L.K.Q.L.R.L.[am]}$PEPTIDE1,PEPTIDE1,7:R3-14:R3$$$V2.0)",75,–,-7.56,-7.13,12.02,12.02,2.50,-4.6
"CC[C@@H]1NC(=O)[C@@H](NC(=O)[C@H](Cc2ccccc2)NC(C)=O)CSSC[C@@H](C(=O)N[C@@H](CCCCN)C(N)=O)NC(=O)[C@H](CO)NC(=O)[C@H]([C@@H](C)O)NC(=O)[C@H](CCC(=O)O)NC(=O)[C@@H]2CCCN2C(=O)[C@H](CO)NC(=O)[C@H](CC)NC(=O)[C@H](CC(=O)O)NC(=O)CNC(=O)[C@H](CO)NC(=O)[C@H](CCCNC(=N)N)NC(=O)[C@H](CC(=O)O)NC(=O)[C@H](CCCCN)NC1=O [C2, CD160(59–75)^(L60C,C61X,L74C)] (HELM PEPTIDE1{[ac].F.C.[Abu].K.D.R.S.G.D.[Abu].S.P.E.T.S.C.K.[am]}$PEPTIDE1,PEPTIDE1,3:R3-17:R3$$$V2.0)",–,–,-0.94,1,–,–,–,0.77
"CC(=O)N[C@@H](Cc1ccccc1)C(=O)N[C@@H](CC(C)C)C(=O)N[C@H]1CSSC[C@@H](C(=O)N[C@@H](CO)C(=O)N2CCC[C@H]2C(=O)N[C@@H](CCC(=O)O)C(=O)N[C@H](C(=O)N[C@@H](CO)C(=O)N[C@@H](CC(C)C)C(=O)N[C@@H](CCCCN)C(N)=O)[C@@H](C)O)NC(=O)[C@H](CC(=O)O)NC(=O)CNC(=O)[C@H](CO)NC(=O)[C@H](CCCNC(=N)N)NC(=O)[C@H](CC(=O)O)NC(=O)[C@H](CCCCN)NC1=O [C3, CD160(59–75)] (HELM PEPTIDE1{[ac].F.L.C.K.D.R.S.G.D.C.S.P.E.T.S.L.K.[am]}$PEPTIDE1,PEPTIDE1,4:R3-11:R3$$$V2.0)",–,–,1.86,2.02,5.70,4.25,4.78,0.4

# Reference: paper PMC12714101, “CD160-Derived Peptide as a Bidirectional Inhibitor Toward Immune Checkpoints BTLA/HVEM and HVEM/LIGHT” (Journal of Medicinal Chemistry, 2025)
